Source: the supplement of paper PMC10307832

Columns and labels:
Experiment in all cases: relative viability (nuclei count vs DMSO), 5 days (fraction); higher = more cells survive
[1] = compound: CN(C)C(=N)NC(=N)N [Metformin] + CC(C)C[C@H](NC(=O)[C@H](Cc1ccccc1)NC(=O)c1cnccn1)B(O)O [Bortezomib] (partner 0.002 µM)
In short: (§1)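 Lung cancer cell lines in 1536-well plates were dosed by pin tool the day after seeding, either with one drug alone or with a fixed anchor-drug dose plus five library-drug doses (not always all listed) in √10 steps. After 5 days, cells were fixed and their nuclei stained in one step (final 0.05% Triton X-100, 1% formaldehyde, 1 ug/ml Hoechst), then counted on 4× images. Relative viability is the nuclei count in treated wells divided by that in vehicle wells. Values are medians of duplicate plates.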

[2] = compound: N#CC1(c2ccc(NC(=O)c3cccnc3NCc3ccncc3)cc2)CCCC1 [Apatinib] + CC(C)C[C@H](NC(=O)[C@H](Cc1ccccc1)NC(=O)c1cnccn1)B(O)O [Bortezomib] (partner 0.002 µM)
In short: as §1

[3] = compound: CN(C)C(=N)NC(=N)N [Metformin] + C[C@@H](Oc1cc(-c2cnn(C3CCNCC3)c2)cnc1N)c1c(Cl)ccc(F)c1Cl [Crizotinib] (partner 1 µM)
In short: as §1

[4] = compound: N#CC1(c2ccc(NC(=O)c3cccnc3NCc3ccncc3)cc2)CCCC1 [Apatinib] + NC(=O)Nc1cc(-c2cccc(F)c2)sc1C(=O)N[C@H]1CCCNC1 [AZD7762] (partner 0.2 µM)
In short: as §1

Row | Cell Line | relative viability ([1]; first compound 10 µM) | relative viability ([1]; first compound 31.62 µM) | relative viability ([1]; first compound 100 µM) | relative viability ([1]; first compound 316.23 µM) | relative viability ([1]; first compound 1000 µM) | relative viability ([2]; first compound 0.08 µM) | relative viability ([2]; first compound 0.253 µM) | relative viability ([2]; first compound 0.8 µM) | relative viability ([2]; first compound 2.53 µM) | relative viability ([2]; first compound 8 µM) | relative viability ([3]; first compound 10 µM) | relative viability ([3]; first compound 31.62 µM) | relative viability ([3]; first compound 100 µM) | relative viability ([3]; first compound 316.23 µM) | relative viability ([3]; first compound 1000 µM) | relative viability ([4]; first compound 0.08 µM) | relative viability ([4]; first compound 0.253 µM) | relative viability ([4]; first compound 0.8 µM) | relative viability ([4]; first compound 2.53 µM) | relative viability ([4]; first compound 8 µM)
1 | NCI-H2126 | 1 | 1.11 | 1.09 | 1.09 | 1.09 | 1.11 | 1.01 | 1.08 | 1.06 | 1.06 | 0.863 | 0.946 | 0.957 | 0.908 | 0.956 | 1.02 | 0.924 | 0.9 | 0.973 | 0.933
2 | NCI-H1395 |  |  |  |  |  |  |  |  |  |  |  |  |  |  |  | 0.438 | 0.425 | 0.407 | 0.361 | 0.373
3 | NCI-H1355 | 1.1 | 1.18 | 1.14 | 1.17 | 1.24 | 1.2 | 1.16 | 1.16 | 1.14 | 1.08 | 1.01 | 1.06 | 1.03 | 0.986 | 1.11 | 0.699 | 0.812 | 0.593 | 0.447 | 0.457
4 | NCI-H1792 |  | 0.918 | 1.04 | 0.922 | 0.827 | 0.917 | 1.05 | 0.957 | 0.906 | 0.968 |  | 0.956 | 1.13 | 0.971 | 0.98 | 0.881 | 0.68 | 0.528 | 0.508 | 0.211
5 | COR-L23 | 1.04 | 0.867 | 0.86 | 0.882 | 0.99 | 1.07 | 1.03 | 0.971 | 0.793 | 0.898 | 0.564 | 0.461 | 0.483 | 0.574 | 0.639 |  |  |  |  | 
6 | NCI-H1563 | 0.917 | 0.866 | 1.02 | 0.877 | 0.954 | 0.762 | 0.963 | 0.811 | 0.737 | 0.762 | 0.855 | 0.889 | 0.865 | 0.793 | 0.827 |  |  |  |  | 
7 | UMC-11 | 0.56 | 0.914 | 0.791 | 0.694 | 0.618 | 1.01 | 0.728 | 0.722 | 0.623 | 0.67 | 0.725 | 0.742 | 0.673 | 0.626 | 0.598 |  |  |  |  | 
8 | SK-LU-1 | 1.45 | 1.2 | 1.1 | 1.06 | 1.27 | 0.932 | 1.26 | 0.968 | 1.12 | 1 | 0.787 | 0.772 | 0.884 | 0.817 | 0.824 |  |  |  |  | 
9 | LK-2 |  |  |  |  |  |  |  |  |  |  | 0.228 | 0.214 | 0.234 | 0.176 | 0.245 | 0.262 | 0.468 | 0.302 | 0.155 | 0.248
10 | COR-L 105 | 1.07 | 1.05 | 1.04 | 0.874 | 1.17 | 1.12 | 0.897 | 0.901 | 0.605 | 0.658 | 0.71 | 0.841 | 0.821 | 0.745 | 0.697 |  |  |  |  | 
11 | NCI-H1650 | 0.208 | 0.206 | 0.232 | 0.231 | 0.231 | 0.19 | 0.219 | 0.198 | 0.184 | 0.188 | 0.961 | 0.855 | 1.04 | 0.877 | 0.82 |  |  |  |  | 
12 | NCI-H2228 | 1.44 | 1.09 |  | 0.956 | 1.13 | 1.27 | 1.17 | 1.17 | 1.02 | 0.93 | 0.48 | 0.515 |  | 0.385 | 0.581 |  |  |  |  | 
13 | NCI-H1299 | 1.09 | 1.06 | 1.08 | 1.06 | 1.06 | 1.06 | 1.02 | 0.987 | 1.03 | 0.908 | 0.98 | 0.962 | 0.975 | 0.972 | 1.04 |  |  |  |  | 
14 | NCI-H522 |  |  |  |  |  |  |  |  |  |  |  |  |  |  |  | 0.884 | 1 | 0.867 | 0.623 | 0.794
15 | NCI-H2009 | 0.694 | 1.16 | 1.12 | 1 | 1.09 | 1.09 | 0.955 | 0.954 | 0.714 | 0.574 | 1.06 | 1.07 | 1.11 | 1.04 | 0.878 |  |  |  |  | 
16 | SW 1573 | 1.19 | 1.15 | 0.963 | 1 | 1.36 | 1.15 | 1.04 | 0.982 | 1.05 | 0.944 | 0.892 | 0.849 | 0.866 | 0.706 | 0.815 |  |  |  |  | 
17 | NCI-H520 | 0.777 | 0.716 | 0.75 | 0.67 | 0.928 | 0.83 | 0.492 | 0.451 | 0.585 | 0.447 | 0.804 | 0.75 | 0.803 | 0.752 | 0.606 |  |  |  |  | 
18 | NCI-H2023 |  | 1.03 | 0.964 |  | 1.1 | 1.02 | 1.09 | 1.02 | 0.858 | 0.856 |  | 0.767 | 0.706 |  | 0.512 |  |  |  |  | 
19 | NCI-H661 | 0.867 | 0.881 | 1.36 | 0.917 | 1.06 | 0.935 | 0.855 | 0.685 | 0.764 | 0.584 |  | 0.848 | 0.843 | 0.885 | 0.8 |  |  |  |  | 
20 | NCI-H1793 |  |  |  |  |  |  |  |  |  |  |  |  |  |  |  | 0.669 | 0.41 | 0.257 | 0.209 | 0.116
21 | NCI-H358 |  |  |  |  |  |  |  |  |  |  | 0.551 | 0.448 | 0.587 | 0.311 | 0.507 | 0.548 | 0.573 | 0.475 | 0.45 | 0.343
22 | NCI-H2342 |  |  |  |  |  |  |  |  |  |  |  |  |  |  |  | 0.454 | 0.464 | 0.536 | 0.385 | 0.353
23 | A549 |  |  |  |  |  |  |  |  |  |  | 0.782 | 0.531 | 0.653 | 0.723 | 0.777 |  |  |  |  | 
24 | NCI-H1944 |  |  |  |  |  |  |  |  |  |  | 1.06 | 1.29 | 1.26 | 1.11 | 1.12 | 0.498 | 0.564 | 0.477 | 0.316 | 0.285
25 | EBC-1 | 0.699 | 0.666 | 0.618 | 0.541 | 0.59 | 0.577 | 0.782 | 0.605 | 0.395 | 0.359 | 0.205 | 0.154 | 0.205 | 0.173 | 0.222 |  |  |  |  | 
